Values after ≈ are worked out from the molar mass of the structure shown.
What was measured:
[1] = Solubility of terconazole in water at adjusted pH (Table 1A); format: physicochemical; conditions: for solubility: water
Text: In a related experiment, the solubility of terconazole in water was increased to about 2.9 percent by weight using acetic acid at pH of about 5.

[2] = cited from earlier work

solubility ([1]; aqueous buffer, pH 4.23 adjusted with HCl): 3400 µg/mL (≈ 6.39 mM) | solubility of terconazole in water ([1]; using acetic acid at pH of about 5): about 2.9 percent by weight | solubility ([1]; aqueous buffer, pH 4.99 adjusted with acetic acid): 29400 µg/mL (≈ 55.2 mM) | solubility ([1]; pH 7.1, pH not adjusted): 70 µg/mL (≈ 0.131 mM)
Compound: CC(C)N1CCN(c2ccc(OCC3COC(Cn4cncn4)(c4ccc(Cl)cc4Cl)O3)cc2)CC1 (stereo not drawn) [Terconazole, cis-1-[p[[2-(2,4-dichlorophenyl)-2-(1H-1,2,4-triazol-1-ylmethyl)-1,3-dioxolan-4-yl]methoxy]phenyl]-4-isopropylpiperazine]
solubility in water [2]: about 0.007 percent by weight

— patent US10398692B2, “Terconazole composition and method” (Curatek Pharmaceuticals Holding, Inc., priority 2006, dated 2019)
